Experimental findings from patent US20230203058A1, “MACROCYCLIC DIAMINE DERIVATIVES AS ENT INHIBITORS FOR THE TREATMENT OF CANCERS, AND COMBINATION THEREOF WITH ADENOSINE RECEPTOR ANTAGONISTS” (ITEOS BELGIUM SA, priority 2020, published 2023) are described below.

In general, IC50 refers to the concentration that gives 50% inhibition. A higher IC50 goes with weaker potency.

Bounds are passed on as bounds.

This experiment deals with T1, human ENT1 (Homo sapiens, UniProt Q99808).
T1 sequence (Q99808 1-456): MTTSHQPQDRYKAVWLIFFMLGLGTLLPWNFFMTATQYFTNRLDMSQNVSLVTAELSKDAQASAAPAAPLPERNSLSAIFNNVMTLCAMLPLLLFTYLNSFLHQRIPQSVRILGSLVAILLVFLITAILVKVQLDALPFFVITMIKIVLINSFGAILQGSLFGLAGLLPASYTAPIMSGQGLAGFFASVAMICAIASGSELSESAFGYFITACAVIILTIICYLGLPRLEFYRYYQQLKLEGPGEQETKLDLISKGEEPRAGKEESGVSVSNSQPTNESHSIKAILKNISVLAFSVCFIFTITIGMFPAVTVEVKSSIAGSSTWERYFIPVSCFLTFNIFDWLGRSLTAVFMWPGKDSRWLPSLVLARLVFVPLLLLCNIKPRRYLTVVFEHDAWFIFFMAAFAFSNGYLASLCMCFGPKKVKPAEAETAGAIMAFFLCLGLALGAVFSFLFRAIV
As to the kind of experiment: ENT1 binding assay (competition with Sahenta-DY647 on JAR cells). The arrangement: JAR cells expressing ENT1 were bought from ATCC® (HTB-144TM); host or cells: JAR cells (human choriocarcinoma line; whole cells). Conditions: competition with Sahenta-DY647 100 nM, 4° C. Here is the method:
The present assay aims at showing that the compounds of the present invention can bind to human ENT1. The principle of the assay is a competition between the compounds of this invention and Sahenta-DY647, an ENT1 inhibitor that emits fluorescence (Ex = 630 nm, Em = 670 nm). By measuring the fluorescence at the end of the assay we could assess the binding potency of the compounds of the present invention.
JAR cells expressing ENT1 were bought from ATCC® (HTB-144TM). Cells were cultured in RPMI 1640 medium (LONZA®, #BE12-702F/U1) supplemented with 10% FBS (GIBCO®, #10270-106), 10 mM Hepes (LONZA®, #BE17-737E), 1 mM Sodium Pyruvate (LONZA®, #BE13-115E) and 2% Penicillin/Streptomycin (LONZA®, #DE17-603E) at 37° C. and 5% CO2. The assay was conducted on the following buffer: HBSS (LONZA®, #LO-527F) supplemented with 10 mM Hepes (LONZA®, #BE17-737E) and 0.1% BSA (Miltenyi®, #130-091-376) on the day of the assay. JAR cells were resuspended in the described buffer. Compounds of the present invention and Sahenta-DY647 were diluted 200X in the described buffer.
A total of 50000 cells were pre-incubated for 30 min at 4° C. with the compounds of the present invention before adding the corresponded IC90 of Sahenta-DY647 (100 nM) and incubate once more for 30 min at 4° C. The total volume of the reaction was 100 µL (50 µL of cells, 25 µL of the compounds of the present invention and 25 µL of Sahenta-DY647) in a 96 well plate, U-bottom (Greiner®, #650-180). The plates were washed 2X by centrifugation (4 min, 400 rcf at 4° C.) in the same buffer. Cells were resuspended in 70 µL of the buffer and 50 µL was transferred to a Black 384 Optiplate (PerkinElmer®, #6007279). Fluorescence (Ex = 630 nm, Em = 670 nm) was acquired on a Spectramax i3x (Molecular Devices®).
For `O=C1NCCCN2CCCN(CC[C@@H](OC(=O)c3ccccc3)CCCOc3cccc1c3)CC2` (stereo in doubt) [Compound 19, (12S)-6-oxo-8-oxa-5-aza-1(1,4)-diazepana-7(1,3)-benzenacyclotetradecaphane-12-yl benzoate], the IC50 was more than 500 nM.

As to `COc1cc2cc(c1OC)OCCCC(OC(=O)c1ccc(O)cc1)CCN1CCCN(CCCOC2=O)CC1` (centres unmarked) [Compound 41, 74,75-dimethoxy-6-oxo-5,8-dioxa-1(1,4)-diazepana-7(1,3)-benzenacyclotetradecaphane-12-yl 4-hydroxybenzoate], the IC50 fell in the range of 1 to 20 nM.

In turn, `COc1cc(C(=O)O[C@H]2CCCOc3cc(cc(Cl)c3Cl)C(=O)OCCCN3CCCN(CC2)CC3)cc(OC)c1OC` [Compound 22, (12S)-74,75-dichloro-6-oxo-5,8-dioxa-1(1,4)-diazepana-7(1,3)-benzenacyclotetradecaphane-12-yl 3,4,5-trimethoxybenzoate] came in with an IC50 of 20 to 500 nM.

As for `COc1cc2cc(c1OC)OCCCC(OC(=O)C1CCCCC1)CCN1CCCN(CCCOC2=O)CC1` (centres unmarked) [Compound 63, 74,75-dimethoxy-6-oxo-5,8-dioxa-1(1,4)-diazepana-7(1,3)-benzenacyclotetradecaphane-12-yl cyclohexanecarboxylate], the IC50 is 1 to 20 nM.

The molecule `COc1cc2cc(c1OC)OCCCC(OC(=O)CCC(=O)N1CCOCC1)CCN1CCCN(CCCOC2=O)CC1` (centres unmarked) [Compound 103, 74,75-dimethoxy-6-oxo-5,8-dioxa-1 (1,4)-diazepana-7(1,3)-benzenacyclotetradecaphane-12-yl 4-morpholino-4-oxobutanoate] had an IC50 of 1 to 20 nM.

For the molecule `COc1cc2cc(c1OC)OCCCC(OC(=O)[C@H]1[C@@H]3COC[C@@H]31)CCN1CCCN(CCCOC2=O)CC1` (stereo partly drawn) [Compound 67, 74,75-dimethoxy-6-oxo-5,8-dioxa-1(1,4)-diazepana-7(1,3)-benzenacyclotetradecaphane-12-yl (1R,5S,6r)-3-oxabicyclo[3.1.0]hexane-6-carboxylate], the IC50 was in the range of 20 to 500 nM.

For the molecule `COc1cc2cc(c1OC)OCCCC(OC(=O)c1ccc(F)c(C#N)c1)CCN1CCCN(CCCOC2=O)CC1` (centres unmarked) [Compound 86, 74,75-dimethoxy-6-oxo-5,8-dioxa-1(1,4)-diazepana-7(1,3)-benzenacyclotetradecaphane-12-yl 3-cyano-4-fluorobenzoate], the IC50 was 1 to 20 nM.

`COc1cc2cc(c1OC)OCCCC(OC(=O)c1cc(F)cc(F)c1)CCN1CCCN(CCCOC2=O)CC1` (centres unmarked) [Compound 84, 74,75-dimethoxy-6-oxo-5,8-dioxa-1(1,4)-diazepana-7(1,3)-benzenacyclotetradecaphane-12-yl 3,5-difluorobenzoate] gave an IC50 of 1 to 20 nM.

On to `COc1cc2cc(c1OC)OCCCC(OC(=O)CC1COC1)CCN1CCCN(CCCOC2=O)CC1` (centres unmarked) [Compound 66, 74,75-dimethoxy-6-oxo-5,8-dioxa-1(1,4)-diazepana-7(1,3)-benzenacyclotetradecaphane-12-yl 2-(oxetan-3-yl)acetate], for which the IC50 lay within 1 to 20 nM.

Regarding `COc1cc2cc(c1OC)OCCCC(OC(=O)CCC(F)(F)F)CCN1CCCN(CCCOC2=O)CC1` (centres unmarked) [Compound 62, 74,75-dimethoxy-6-oxo-5,8-dioxa-1(1,4)-diazepana-7(1,3)-benzenacyclotetradecaphane-12-yl 4,4,4-trifluorobutanoate], the IC50 is 1 to 20 nM.

`COc1cc2cc(c1OC)OCCCC(n1nnc(-c3ccccc3)n1)CCN1CCCN(CCCOC2=O)CC1` (centres unmarked) [Compound 107, 74,75-dimethoxy-12-(5-phenyl-2 H-tetrazol-2-yl)-5,8-dioxa-1(1,4)-diazepana-7(1,3)-benzenacyclotetradecaphan-6-one] displayed an IC50 of 1 to 20 nM.

In turn, `COc1cc(C(=O)O[C@H]2CCCOc3cc(cc(OC)c3OC)C(=O)NCCCN3CCCN(CC2)CC3)cc(OC)c1OC` [Compound 9, (12S)-74,75-dimethoxy-6-oxo-8-oxa-5-aza-1(1,4)-diazepana-7(1,3)-benzenacyclotetradecaphane-12-yl 3,4,5-trimethoxybenzoate] had an IC50 of more than 500 nM.

With `COc1cc(C(=O)O[C@H]2CCCOc3cccc(c3)C(=O)OCCCN3CCCN(CC2)CC3)cc(OC)c1OC` (stereo in doubt) [Compound 17, (12S)-6-oxo-5,8-dioxa-1(1,4)-diazepana-7(1,3)-benzenacyclotetradecaphane-12-yl 3,4,5-trimethoxybenzoate], the IC50 was more than 500 nM.

`COc1cc2cc(c1OC)OCCCC(OC(=O)c1ccc(F)c(C(F)(F)F)c1)CCN1CCCN(CCCOC2=O)CC1` (centres unmarked) [Compound 81, 74,75-dimethoxy-6-oxo-5,8-dioxa-1(1,4)-diazepana-7(1,3)-benzenacyclotetradecaphane-12-yl 4-fluoro-3-(trifluoromethyl)benzoate]: the IC50 was in the range of 1 to 20 nM.

For `COc1cc2cc(c1OC)OCCCC(OC(=O)c1c(F)ccc(C)c1Cl)CCN1CCCN(CCCOC2=O)CC1` (centres unmarked) [Compound 79, 74,75-dimethoxy-6-oxo-5,8-dioxa-1(1,4)-diazepana-7(1,3)-benzenacyclotetradecaphane-12-yl 2-chloro-6-fluoro-3-methylbenzoate], the IC50 was in the range of 1 to 20 nM.

For the molecule `COc1cc2cc(c1OC)OCCCC(OC(=O)c1ccc(-c3cnco3)cc1)CCN1CCCN(CCCOC2=O)CC1` (centres unmarked) [Compound 90, 74,75-dimethoxy-6-oxo-5,8-dioxa-1(1,4)-diazepana-7(1,3)-benzenacyclotetradecaphane-12-yl 4-(oxazol-5-yl)benzoate], the IC50 was in the range of 1 to 20 nM.

Take `COc1cc2cc(c1OC)OCCCC(OC(=O)c1ccc(C(F)(F)F)cc1)CCN1CCCN(CCCOC2=O)CC1` (centres unmarked) [Compound 83, 74,75-dimethoxy-6-oxo-5,8-dioxa-1(1,4)-diazepana-7(1,3)-benzenacyclotetradecaphane-12-yl 4-(trifluoromethyl)benzoate]: the IC50 lay in the range of 1 to 20 nM.

As for `COc1ccc(C(=O)OC2CCCOc3cc(cc(OC)c3OC)C(=O)OCCCN3CCCN(CC2)CC3)c(F)c1` (centres unmarked) [Compound 50, 74,75-dimethoxy-6-oxo-5,8-dioxa-1(1,4)-diazepana-7(1,3)-benzenacyclotetradecaphane-12-yl 2-fluoro-4-methoxybenzoate], the IC50 lay in the range of 1 to 20 nM.

Consider `COc1cc2cc(c1OC)OCCCC(OC(=O)C1CC(C)(C)C1)CCN1CCCN(CCCOC2=O)CC1` (centres unmarked) [Compound 65, 74,75-dimethoxy-6-oxo-5,8-dioxa-1(1,4)-diazepana-7(1,3)-benzenacyclotetradecaphane-12-yl 3,3-dimethylcyclobutane-1-carboxylate], for which the IC50 was in the range of 20 to 500 nM.

Molecule `COc1cc2cc(c1OC)OCCCC(OC(=O)c1ccc(C#N)cc1)CCN1CCCN(CCCOC2=O)CC1` (centres unmarked) [Compound 87, 74,75-dimethoxy-6-oxo-5,8-dioxa-1(1,4)-diazepana-7(1,3)-benzenacyclotetradecaphane-12-yl 4-cyanobenzoate] returned a concentration for half-maximal inhibition (IC50) of 1 to 20 nM.

Molecule `COc1cc(C(=O)O[C@H]2CCCOc3cc(cc(OC)c3OC)C(=O)OCCCN3CCN(CC2)CC(F)(F)C3)cc(OC)c1OC` [Compound 119, (12S)-16,16-difluoro-74,75-dimethoxy-6-oxo-5,8-dioxa-1(1,4)-diazepana-7(1,3)-benzenacyclotetradecaphane-12-yl 3,4,5-trimethoxybenzoate] showed an IC50 of 1 to 20 nM.

As to `COc1cc2cc(c1OC)OCCCC(OC(=O)c1ccc(Cl)c(Cl)c1)CCN1CCCN(CCCOC2=O)CC1` (centres unmarked) [Compound 24, 74,75-dimethoxy-6-oxo-5,8-dioxa-1(1,4)-diazepana-7(1,3)-benzenacyclotetradecaphane-12-yl 3,4-dichlorobenzoate], the IC50 was 20 to 500 nM.

Regarding `O=C1NCCCN2CCCN(CC[C@H](OC(=O)c3ccccc3)CCCOc3cccc1c3)CC2` (stereo in doubt) [Compound 20, (12R)-6-oxo-8-oxa-5-aza-1(1,4)-diazepana-7(1,3)-benzenacyclotetradecaphane-12-yl benzoate], the IC50 is more than 500 nM.
